Test results published in ChEMBL document CHEMBL1201862, “PubChem BioAssay data set” (2004).
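Exposure lasted 48 hours, with cells grown in 96-well plates and compounds tested at five concentrations. GI50: concentration for 50% inhibition of growth.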 Active and inactive are the calls of the source. Rule as the data show it: active = GI50 up to about 1.1 µM and inactive = higher.

Legend:
Assay in all cases: inhibition of tumour cell growth, NCI panel, 48 h
A498 = tested on: A498
OVCAR-4 = tested on: OVCAR-4
SN12C = tested on: SN12C
NCI-H460 = tested on: NCI-H460
SW-620 = tested on: SW-620
NCI-H23 = tested on: NCI-H23
CAKI-1 = tested on: CAKI-1
PC-3 = tested on: PC-3
K562 = tested on: K562
NCI-H522 = tested on: NCI-H522
RPMI-8226 = tested on: RPMI-8226
SK-MEL-5 = tested on: SK-MEL-5
ACHN = tested on: ACHN
MDA-MB-231 = tested on: MDA-MB-231
SK-MEL-28 = tested on: SK-MEL-28
TK-10 = tested on: TK-10
HCT-116 = tested on: HCT-116
IGROV-1 = tested on: IGROV-1
LOX IMVI = tested on: LOX IMVI
HL-60 = tested on: HL-60

Measured: GI50

CCOC(=O)C1=COC(C)(CCc2ccccc2)CC1=O (configuration not stated)
inactive: A498 > 100 µM | OVCAR-4 > 100 µM | SN12C > 100 µM | NCI-H460 92.5 µM | SW-620 > 100 µM | NCI-H23 95.5 µM | CAKI-1 > 100 µM | PC-3 89.1 µM | K562 40.3 µM | NCI-H522 24.7 µM | RPMI-8226 41.9 µM | SK-MEL-5 94 µM | ACHN > 100 µM | MDA-MB-231 82.6 µM | SK-MEL-28 > 100 µM | TK-10 > 100 µM | HCT-116 67.9 µM

O=c1c(=O)c2cscc2c1=O
active: SW-620 0.989 µM | K562 0.0955 µM | NCI-H522 0.486 µM
inactive: A498 > 25 µM | IGROV-1 4.66 µM | OVCAR-4 4.99 µM | SN12C 5.87 µM | NCI-H460 7.76 µM | NCI-H23 5.61 µM | CAKI-1 4.4 µM | PC-3 4.58 µM | RPMI-8226 6.47 µM | SK-MEL-5 4.42 µM | ACHN 4.69 µM | MDA-MB-231 5.14 µM | SK-MEL-28 4.53 µM | TK-10 4.56 µM | LOX IMVI 4.92 µM | HCT-116 4.9 µM

CNC(=O)C(C)C1C(=O)/C(=C(O)/C=C\C(C)=C\C(C)C2OC3(C)OC(C=CC34CO4)C2C)C(=O)N1C1CCC(O)C(C)O1 (configuration not stated)
inactive: A498 > 100 µM | IGROV-1 > 100 µM | SN12C > 100 µM | NCI-H460 > 100 µM | SW-620 > 100 µM | CAKI-1 > 100 µM | PC-3 > 100 µM | K562 > 100 µM | RPMI-8226 > 100 µM | SK-MEL-5 > 100 µM | ACHN > 100 µM | MDA-MB-231 > 100 µM | SK-MEL-28 > 100 µM | TK-10 > 100 µM | HCT-116 > 100 µM

C/C=C(/CBr)CCC(Br)C(C)(C)Cl.C/C=C(\CBr)CCC(Br)C(C)(C)Cl (configuration not stated)
inactive: A498 > 10 µM | IGROV-1 > 10 µM | OVCAR-4 > 10 µM | SN12C > 10 µM | NCI-H460 > 10 µM | SW-620 > 10 µM | NCI-H23 > 10 µM | CAKI-1 > 10 µM | PC-3 > 10 µM | K562 > 10 µM | NCI-H522 > 10 µM | RPMI-8226 > 10 µM | SK-MEL-5 > 10 µM | ACHN > 10 µM | MDA-MB-231 > 10 µM | SK-MEL-28 > 10 µM | TK-10 > 10 µM | HCT-116 > 10 µM

O/N=C1/Nc2ccccc2C(=S)N2CSCC12 (configuration not stated)
inactive: A498 68.7 µM | IGROV-1 > 100 µM | OVCAR-4 > 100 µM | SN12C 34 µM | NCI-H460 17.3 µM | SW-620 35.6 µM | CAKI-1 > 100 µM | PC-3 73.8 µM | K562 22.8 µM | NCI-H522 37 µM | RPMI-8226 > 100 µM | SK-MEL-5 23.4 µM | ACHN > 100 µM | MDA-MB-231 > 100 µM | SK-MEL-28 > 100 µM | TK-10 > 100 µM | LOX IMVI 62.8 µM | HCT-116 43.6 µM

CC1=C(C(=O)OCCc2ccc([N+](=O)[O-])cc2)C(c2ccccc2[N+](=O)[O-])C(C(=O)OC(C)C)=C(C)N1 (configuration not stated)
inactive: IGROV-1 7.05 µM | OVCAR-4 37.9 µM | SN12C 6.87 µM | HL-60 2.2 µM | NCI-H460 2.6 µM | SW-620 6.89 µM | NCI-H23 3.97 µM | CAKI-1 3.4 µM | PC-3 1.49 µM | K562 3.39 µM | NCI-H522 2.18 µM | RPMI-8226 2.93 µM | SK-MEL-5 2.24 µM | ACHN 3.4 µM | MDA-MB-231 4.91 µM | SK-MEL-28 7.57 µM | TK-10 5.87 µM | LOX IMVI 4.14 µM | HCT-116 2.75 µM

COC(=O)C1Cc2c(OC)ccc(OC)c2CC(C(=O)OC)C1=O (configuration not stated)
inactive: A498 > 100 µM | IGROV-1 > 100 µM | OVCAR-4 > 100 µM | SN12C > 100 µM | NCI-H460 > 100 µM | SW-620 > 100 µM | NCI-H23 32.4 µM | CAKI-1 > 100 µM | PC-3 > 100 µM | K562 > 100 µM | NCI-H522 > 100 µM | RPMI-8226 > 100 µM | SK-MEL-5 > 100 µM | ACHN 63.5 µM | MDA-MB-231 > 100 µM | SK-MEL-28 > 100 µM | HCT-116 > 100 µM

O=C(Cc1ccccc1)N/N=C/c1ccccc1O
inactive: IGROV-1 7.85 µM | OVCAR-4 15.7 µM | SN12C 17.2 µM | HL-60 6.3 µM | NCI-H460 5.6 µM | SW-620 19.3 µM | NCI-H23 17.8 µM | CAKI-1 5.92 µM | PC-3 82.6 µM | K562 13.9 µM | NCI-H522 13.2 µM | RPMI-8226 15.9 µM | SK-MEL-5 12 µM | ACHN 5.15 µM | MDA-MB-231 > 100 µM | SK-MEL-28 40.4 µM | TK-10 22.4 µM | LOX IMVI 9.42 µM | HCT-116 7.55 µM
